Experimental data as given in patent US20250011300A1, “PIPERAZINYLSULFONYLARYL COMPOUNDS FOR TREATMENT OF BACTERIAL INFECTIONS” (Hoffmann-La Roche Inc., priority 2021, published 2025).
In brackets after ≈: the same amount, converted by molar mass.

Legend:
[1] = tested on: K. pneumonia (ATCC 43816); assay: Minimal Inhibitory Concentration (MIC) assay, K. pneumonia; assay type: cell-based; details: Klebsiella pneumoniae; K. pneumoniae ATCC43816, CAMHB, 20 hours at 35° C.; read-out: MIC K. pneumoniae ATCC43816
Experimental: (§1) Example 122: Minimal Inhibitory Concentration Protocol (MIC) Assay
(§2) The in vitro potency of compounds to inhibit E. coli (ATCC 25922) and K. pneumonia (ATCC 43816) growth was assessed by MIC (Minimal Inhibitory Concentration) assay. Samples were prepared from 10 mM DMSO stock solutions. After serial 2-fold dilution in DMSO in a master plate (Greiner, Cat No: 651201), 180 μL sterile distilled water was added to 20 μL each aliquot of the samples. Then 10 μL diluted compounds were transferred into a new assay plate (Costar, 3599).
(§3) The growth medium Cation-Adjusted Mueller Hinton Broth (CAMHB) was prepared by adding the 20 mg per liter CaCl2) and 20 mg per liter MgCl2 into the MHB medium (Jianglai Company, sterilized).
(§4) Vials of each of the test microorganisms were maintained frozen in the vapor phase of a liquid nitrogen freezer. The bacteria E. coli ATCC 25922 (KWIKSTIK, 0335K) and K. pneumonia ATCC 43816 were taken out from liquid nitrogen freezer, then thawed in room temperature, and diluted in the CAMHB medium to achieve a final inoculum of 5×10^5 CFU/mL. 90 μL CAMHB with bacteria was dispensed to the assay plate and pipetted 5 times.
(§5) Then the assay plates were incubated for 20 hours at 35° C. in ambient air. Following incubation, the MIC (μg/mL), the lowest concentration of drug that inhibits visible growth of the microorganism was read and recorded throw the microscope.

[2] = tested on: E. coli (ATCC 25922); assay: Minimal Inhibitory Concentration (MIC) assay, E. coli; assay type: cell-based; details: Escherichia coli, ATCC25922; E. coli ATCC 25922, CAMHB, 20 hours at 35° C.; read-out: MIC E. coli ATCC 25922
Experimental: as §1, §2, §3, §4, §5

Row | SMILES | MIC [1] | MIC [2]
1 | NC1CC(=O)N(c2ccc(S(=O)(=O)N3CCN(c4nc(Cl)cc(C(F)(F)c5ccccc5)n4)CC3)cc2)C1 (stereo not shown) [Example 78, 4-Amino-1-[4-[4-[4-chloro-6-[difluoro(phenyl)methyl]pyrimidin-2-yl]piperazin-1-yl]sulfonylphenyl]pyrrolidin-2-one] | 1.76 µg/mL (≈ 3.13 µM) | 0.22 µg/mL (≈ 0.391 µM)
2 | N[C@@H]1CC(=O)N(c2ccc(S(=O)(=O)N3CCN(c4cc(C(F)(F)[C@H]5C[C@H](O)C5)cc(Cl)n4)CC3)cc2)C1 [Example 119, (4R)-4-amino-1-[4-[4-[6-chloro-4-[trans-difluoro-(3-hydroxycyclobutyl)methyl]-2-pyridyl]piperazin-1-yl]sulfonylphenyl]pyrrolidin-2-one] | 0.46 µg/mL (≈ 0.827 µM) | 0.46 µg/mL (≈ 0.827 µM)
3 | N[C@@H]1CC(=O)N(c2ccc(S(=O)(=O)N3CCN(c4cc(C(F)(F)C5C[C@H]5CO)cc(Cl)n4)CC3)cc2)C1 (stereo partly drawn) [Example 117, (4R)-4-amino-1-[4-[4-[6-chloro-4-[trans-difluoro-[2-(hydroxymethyl)cyclopropyl]methyl]-2-pyridyl]piperazin-1-yl]sulfonylphenyl]pyrrolidin-2-one] | 1.9 µg/mL (≈ 3.42 µM) | 0.93 µg/mL (≈ 1.67 µM)
4 | Cc1cc(C(F)(F)F)nc(N2CCN(S(=O)(=O)c3ccc(N4CC(N)CC4=O)cc3)CC2)n1 (stereo not shown) [Example 65, 4-Amino-1-[4-[4-[4-methyl-6-(trifluoromethyl)pyrimidin-2-yl]piperazin-1-yl]sulfonylphenyl]pyrrolidin-2-one] | 7.48 µg/mL (≈ 15.4 µM) | 3.74 µg/mL (≈ 7.72 µM)
5 | Cc1nc(C(F)(F)c2cc(Cl)nc(N3CCN(S(=O)(=O)c4ccc(N5C[C@H](N)CC5=O)cc4)CC3)c2)cnc1Cl [Example 113, (4R)-4-amino-1-[4-[4-[6-chloro-4-[(5-chloro-6-methyl-pyrazin-2-yl)-difluoro-methyl]-2-pyridyl]piperazin-1-yl]sulfonylphenyl]pyrrolidin-2-one] | 0.51 µg/mL (≈ 0.833 µM) | 0.26 µg/mL (≈ 0.424 µM)
6 | NCC1CCC(=O)N1c1ccc(S(=O)(=O)N2CCN(c3cc(C(F)(F)c4ccccc4)cc(Cl)n3)CC2)cc1 (stereo not shown) [Example 86, 5-(Aminomethyl)-1-[4-[4-[6-chloro-4-[difluoro(phenyl)methyl]-2-pyridyl]piperazin-1-yl]sulfonylphenyl]pyrrolidin-2-one] | 1.26 µg/mL (≈ 2.19 µM) | 1.26 µg/mL (≈ 2.19 µM)
7 | CC1COC(C(F)(F)c2cc(Cl)nc(N3CCN(S(=O)(=O)c4ccc(N5C[C@H](N)CC5=O)cc4)CC3)c2)CN1 (stereo partly shown) [Example 115] | 1.9 µg/mL (≈ 3.25 µM) | 0.97 µg/mL (≈ 1.66 µM)
8 | NC1CC(=O)N(c2ccc(S(=O)(=O)N3CCN(c4cc(C(F)(F)F)cc(Cl)n4)CC3)cn2)C1 (stereo not shown) [Example 62, 4-Amino-1-[5-[4-[6-chloro-4-(trifluoromethyl)-2-pyridyl]piperazin-1-yl]sulfonyl-2-pyridyl]pyrrolidin-2-one] | 15.5 µg/mL (≈ 30.6 µM) | 7.74 µg/mL (≈ 15.3 µM)
9 | O=C1O[C@@H]2[C@@H](O)[C@H](CO)[C@@H](O)O[C@@H]2N1c1ccc(S(=O)(=O)N2CCN(c3cc(C(F)(F)F)cc(Cl)n3)CC2)cc1 [Example 23, (3aS,5S,6S,7S,7aR)-3-[4-[4-[6-chloro-4-(trifluoromethyl)-2-pyridyl]piperazin-1-yl]sulfonylphenyl]-5,7-dihydroxy-6-(hydroxymethyl)-5,6,7,7a-tetrahydro-3aH-pyrano[2,3-d]oxazol-2-one] | 60.9 µg/mL (≈ 100 µM) | 30.4 µg/mL (≈ 50 µM)
10 | NC[C@H]1CC[C@H](C(F)(F)c2cc(Cl)nc(N3CCN(S(=O)(=O)c4ccc(N5C[C@H](N)CC5=O)cc4)CC3)c2)CC1 [Example 118, (4R)-4-amino-1-[4-[4-[4-[[trans-4-(aminomethyl)cyclohexyl]-difluoro-methyl]-6-chloro-2-pyridyl]piperazin-1-yl]sulfonylphenyl]pyrrolidin-2-one] | 0.99 µg/mL (≈ 1.66 µM) | 0.5 µg/mL (≈ 0.837 µM)
11 | NC1CC(=O)N(c2ccc(S(=O)(=O)N3CCN(c4cc(Cc5ccccc5)cc(Cl)n4)CC3)cc2)C1 (stereo not shown) [Example 74, 4-Amino-1-[4-[4-(4-benzyl-6-chloro-2-pyridyl)piperazin-1-yl]sulfonylphenyl]pyrrolidin-2-one] | 1.18 µg/mL (≈ 2.24 µM) | 1.18 µg/mL (≈ 2.24 µM)

Other lines, results leading:

Row | MIC [1] | MIC [2] | SMILES
12 | 1.8 µg/mL (≈ 3.11 µM) | 0.9 µg/mL (≈ 1.56 µM) | Cc1cnc(C(F)(F)c2cc(Cl)nc(N3CCN(S(=O)(=O)c4ccc(N5C[C@H](N)CC5=O)cc4)CC3)c2)cn1 [Example 111, (4R)-4-amino-1-[4-[4-[6-chloro-4-[difluoro-(5-methylpyrazin-2-yl)methyl]-2-pyridyl]piperazin-1-yl]sulfonylphenyl]pyrrolidin-2-one]
13 | > 28.4 µg/mL | > 28.4 µg/mL | NC1CC(=O)N(c2ccc(S(=O)(=O)N3CCN(c4nc(C5CC5)cc(C(F)(F)c5ccccc5)n4)CC3)cc2)C1 (stereo not shown) [Example 80, 4-Amino-1-[4-[4-[4-cyclopropyl-6-[difluoro(phenyl)methyl]pyrimidin-2-yl]piperazin-1-yl]sulfonylphenyl]pyrrolidin-2-one]
14 | 7.52 µg/mL (≈ 15.4 µM) | 3.76 µg/mL (≈ 7.71 µM) | [2H]C([2H])([2H])c1cc(C(F)(F)F)nc(N2CCN(S(=O)(=O)c3ccc(N4CC(N)CC4=O)cc3)CC2)n1 (stereo not shown) [Example 66, 4-Amino-1-[4-[4-[4-(trideuteriomethyl)-6-(trifluoromethyl)pyrimidin-2-yl]piperazin-1-yl]sulfonylphenyl]pyrrolidin-2-one]
15 | 2.29 µg/mL (≈ 3.71 µM) | 2.29 µg/mL (≈ 3.71 µM) | O=C1CC2(CNCCN2)CN1c1ccc(S(=O)(=O)N2CCN(c3cc(C(F)(F)c4ccccc4)cc(Cl)n3)CC2)cc1 (stereo not shown) [Example 85, 2-[4-[4-[6-Chloro-4-[difluoro(phenyl)methyl]-2-pyridyl]piperazin-1-yl]sulfonylphenyl]-2,6,9-triazaspiro[4.5]decan-3-one]
16 | 1.22 µg/mL (≈ 2.21 µM) | 1.22 µg/mL (≈ 2.21 µM) | NC1CC(=O)N(c2ccc(S(=O)(=O)N3CCN(c4cc(C5(c6ccccc6)CC5)cc(Cl)n4)CC3)cc2)C1 (stereo not shown) [Example 75, 4-Amino-1-[4-[4-[6-chloro-4-(1-phenylcyclopropyl)-2-pyridyl]piperazin-1-yl]sulfonylphenyl]pyrrolidin-2-one]
17 | 6.98 µg/mL (≈ 12.5 µM) | 4.36 µg/mL (≈ 7.81 µM) | COc1nc(N2CCN(S(=O)(=O)c3ccc(N4CC(N)CC4=O)cc3)CC2)cc(C(F)(F)c2ccccc2)n1 (stereo not shown) [Example 81, 4-Amino-1-[4-[4-[6-[difluoro(phenyl)methyl]-2-methoxy-pyrimidin-4-yl]piperazin-1-yl]sulfonylphenyl]pyrrolidin-2-one]
18 | 0.45 µg/mL (≈ 0.778 µM) | 0.45 µg/mL (≈ 0.778 µM) | Cc1cncc(C(F)(F)c2cc(Cl)nc(N3CCN(S(=O)(=O)c4ccc(N5C[C@H](N)CC5=O)cc4)CC3)c2)n1 [Example 112, (4R)-4-amino-1-[4-[4-[6-chloro-4-[difluoro-(6-methylpyrazin-2-yl)methyl]-2-pyridyl]piperazin-1-yl]sulfonylphenyl]pyrrolidin-2-one]
19 | 3.81 µg/mL (≈ 6.65 µM) | 1.91 µg/mL (≈ 3.33 µM) | NC1CCN(C2CC(=O)N(c3ccc(S(=O)(=O)N4CCN(c5cc(C(F)(F)F)cc(Cl)n5)CC4)cc3)C2)C1 (stereo not shown) [Example 50, 4-(3-Aminopyrrolidin-1-yl)-1-[4-[4-[6-chloro-4-(trifluoromethyl)-2-pyridyl]piperazin-1-yl]sulfonylphenyl]pyrrolidin-2-one]
20 | 1.8 µg/mL (≈ 3.08 µM) | 0.91 µg/mL (≈ 1.56 µM) | C[C@H]1CNCC(C(F)(F)c2cc(Cl)nc(N3CCN(S(=O)(=O)c4ccc(N5C[C@H](N)CC5=O)cc4)CC3)c2)O1 (stereo partly drawn) [Example 114, (4R)-4-amino-1-[4-[4-[6-chloro-4-[difluoro-[cis-6-methylmorpholin-2-yl]methyl]-2-pyridyl]piperazin-1-yl]sulfonylphenyl]pyrrolidin-2-one]
